From ChEMBL document CHEMBL4251570, “Synthesis and biological evaluation of a novel β-D-2'-deoxy-2'-α-fluoro-2'-β-C-(fluoromethyl)uridine phosphoramidate prodrug for the treatment of hepatitis C virus infection” (Eur J Med Chem, 2018)
Activity calls are given as the source filed them. The calls are words filed in the database; no cut-off is given here.

Assays:
[1] = Cytotoxicity against human HuH7 cells after 72 hrs by CellTiter 96 AQueous one solution cell proliferation assay; type: cell-based, Huh-7
Hepatitis C virus [2] = assay: Antiviral activity against Hepatitis C virus JFH-1 infected in human HuH7 cells assessed as inhibition of viral RNA replication after 3 days by quantitative real-time RT-PCR analysis; type: functional, organism-based; settings: for Activity: Hepacivirus hominis; for EC50 / EC90: JFH-1, Huh-7, 72 h
[3] = Half life in simulated intestinal fluid at pH 7.4 at 1 mg/ml incubated up to 24 hrs at 37 degC by HPLC analysis; type: ADME
Mus musculus [4] = assay: Acute toxicity in Kunming mouse assessed as mortality at 2 to 4 g/kg, po administered as single dose measured after 15 days; type: organism-based; settings: in vivo, 360 h
Mus musculus [5] = assay: Acute toxicity in Kunming mouse assessed as induction of damage to spleen at 2 to 4 g/kg, po administered as single dose measured after 15 days; type: organism-based; settings: in vivo, 360 h
Mus musculus [6] = assay: Acute toxicity in Kunming mouse assessed as induction of damage to liver at 2 to 4 g/kg, po administered as single dose measured after 15 days; type: organism-based; settings: in vivo, 360 h
Mus musculus [7] = assay: Acute toxicity in Kunming mouse assessed as induction of damage to heart at 2 to 4 g/kg, po administered as single dose measured after 15 days; type: organism-based; settings: in vivo, 360 h
Mus musculus [8] = assay: Acute toxicity in Kunming mouse assessed as induction of damage to kidney at 2 to 4 g/kg, po administered as single dose measured after 15 days; type: organism-based; settings: in vivo, 360 h
Mus musculus [9] = assay: Acute toxicity in Kunming mouse assessed as change in body weight at 2 to 4 g/kg, po administered as single dose measured after 15 days; type: organism-based; settings: in vivo, 360 h
[10] = AUC (0 to infinity) in Sprague-Dawley rat liver assessed as 1-((2R,3R,4R,5R)-3-fluoro-3-(fluoromethyl)-4-hydroxy-5-(hydroxymethyl)tetrahydrofuran-2-yl)pyrimidine-2,4(1H,3H)-dione triphosphate at 50 mg/kg administered via oral gavage by HPLC-MS/MS analysis; type: ADME, organism-based; parameters: dose 50 mg/kg, time infinity, route oral; settings: in vivo
Mus musculus [11] = assay: Acute toxicity in Kunming mouse assessed as induction of induction of damage to lung at 2 to 4 g/kg, po administered as single dose measured after 15 days; type: organism-based; settings: in vivo, 360 h
[12] = AUC (0 to t) in Sprague-Dawley rat liver assessed as 1-((2R,3R,4R,5R)-3-fluoro-3-(fluoromethyl)-4-hydroxy-5-(hydroxymethyl)tetrahydrofuran-2-yl)pyrimidine-2,4(1H,3H)-dione triphosphate at 50 mg/kg administered via oral gavage by HPLC-MS/MS analysis; type: ADME, organism-based; settings: in vivo
Hepatitis C virus [13] = assay: Antiviral activity against Hepatitis C virus genotype 2a infected in human HuH7 cells after 48 hrs by luciferase reporter gene assay; type: functional, organism-based, Hepacivirus hominis; settings: Huh-7, 48 h
Hepatitis C virus [14] = assay: Antiviral activity against Hepatitis C virus genotype 1a infected in human HuH7 cells after 48 hrs by luciferase reporter gene assay; type: functional, organism-based, Hepacivirus hominis; settings: subtype 1a, Huh-7, 48 h
Mus musculus [15] = assay: Acute toxicity in Kunming mouse assessed as induction of observable clinical toxic signs at 2 to 4 g/kg, po administered as single dose measured after 15 days; type: organism-based; settings: in vivo, 360 h
[16] = Half life in simulated gastric fluid at pH 1.2 at 1 mg/ml incubated up to 24 hrs at 37 degC by HPLC analysis; type: ADME
[17] = Half life in human plasma at 1 mg/ml incubated up to 24 hrs at 37 degC by HPLC analysis; type: ADME, cell-free
[18] = Tmax in Sprague-Dawley rat liver assessed as 1-((2R,3R,4R,5R)-3-fluoro-3-(fluoromethyl)-4-hydroxy-5-(hydroxymethyl)tetrahydrofuran-2-yl)pyrimidine-2,4(1H,3H)-dione triphosphate at 50 mg/kg administered via oral gavage by HPLC-MS/MS analysis; type: ADME, organism-based; settings: in vivo
[19] = Half life in Sprague-Dawley rat liver assessed as 1-((2R,3R,4R,5R)-3-fluoro-3-(fluoromethyl)-4-hydroxy-5-(hydroxymethyl)tetrahydrofuran-2-yl)pyrimidine-2,4(1H,3H)-dione triphosphate at 50 mg/kg administered via oral gavage by HPLC-MS/MS analysis; type: ADME, organism-based; settings: in vivo
Hepatitis C virus [20] = assay: Antiviral activity against Hepatitis C virus genotype 1b infected in human HuH7 cells after 48 hrs by luciferase reporter gene assay; type: functional, organism-based, Hepacivirus hominis; settings: Huh-7, 48 h
[21] = Half life in human liver S9 fraction at 1 mg/ml incubated up to 120 mins at 37 degC by HPLC analysis; type: ADME, subcellular
Hepatitis C virus [22] = assay: Antiviral activity against Hepatitis C virus genotype 1b expressing NS5B RNA dependent RNA polymerase S282T mutant infected in human HuH7 cells after 48 hrs by luciferase reporter gene assay; type: functional, organism-based, Hepacivirus hominis; settings: Huh-7, 48 h
Hepatitis C virus [23] = assay: Antiviral activity against Hepatitis C virus JFH-1 infected in human HuH7 cells assessed as inhibition of viral core protein levels at 1 uM by Western blot method; type: functional, organism-based; settings: Hepacivirus hominis
[24] = Cmax in Sprague-Dawley rat liver assessed as 1-((2R,3R,4R,5R)-3-fluoro-3-(fluoromethyl)-4-hydroxy-5-(hydroxymethyl)tetrahydrofuran-2-yl)pyrimidine-2,4(1H,3H)-dione triphosphate at 50 mg/kg administered via oral gavage by HPLC-MS/MS analysis; type: ADME, organism-based; parameters: dose 50 mg/kg, route oral; settings: in vivo
[25] = Drug level in Sprague-Dawley rat liver treated with at 50 mg/kg, po 2-(((S)-(((2R,3R,4R,5R)-5-(2,4-dioxo-3,4-dihydropyrimidin-1(2H)-yl)-4-fluoro-4-(fluoromethyl)-3-hydroxytetrahydrofuran-2-yl)methoxy) (phenoxy)phosphoryl)amino) propanoate assessed as compound formation by HPLC-MS/MS analysis; type: ADME, organism-based; settings: in vivo

CC(C)OC(=O)[C@H](C)N[P@](=O)(OC[C@H]1O[C@@H](n2ccc(=O)[nH]c2=O)[C@](C)(F)[C@@H]1O)Oc1ccccc1 [SOFOSBUVIR]
CC50 at 72 h [1]: > 1000 µM
Activity (Hepatitis C virus [2]): Dose-dependent effect
EC50 (Hepatitis C virus [2]): 0.27 µM
EC90 (Hepatitis C virus [2]): 0.83 µM

CC(C)OC(=O)[C@H](C)N[P@](=O)(OC[C@H]1O[C@@H](n2ccc(=O)[nH]c2=O)[C@@](F)(CF)[C@@H]1O)Oc1ccccc1
half-life at 1 mg/ml [3]: > 24 h
Activity (Mus musculus [4]): Non-Toxic
Activity (Mus musculus [5]): Non-Toxic
Activity (Mus musculus [6]): Non-Toxic
Activity (Mus musculus [7]): Non-Toxic
Activity (Mus musculus [8]): Non-Toxic
Activity (Mus musculus [9]): Non-Toxic
CC50 at 72 h [1]: > 1000 µM
AUC [10]: 15655 ng·h/g
Activity (Mus musculus [11]): Non-Toxic
AUCt [12]: 14540 ng·h/g
EC50 (Hepatitis C virus [13]): 0.54 µM
EC90 (Hepatitis C virus [13]): 3.05 µM
EC50 (Hepatitis C virus [14]): 0.31 µM
EC90 (Hepatitis C virus [14]): 1.26 µM
Activity (Mus musculus [15]): Non-Toxic
half-life at 1 mg/ml [16]: > 24 h
half-life at 1 mg/ml [17]: 17.3 h
Tmax [18]: 5.83 h
Activity (Hepatitis C virus [2]): Dose-dependent effect
EC50 (Hepatitis C virus [2]): 0.18 µM
EC90 (Hepatitis C virus [2]): 0.74 µM
t1/2 [19]: 3.73 h
EC50 (Hepatitis C virus [20]): 0.24 µM
EC90 (Hepatitis C virus [20]): 0.5 µM
half-life [21]: 0.49 h
EC50 (Hepatitis C virus [22]): 1.13 µM
EC90 (Hepatitis C virus [22]): 7.7 µM
Activity (Hepatitis C virus [23]): Active
Cmax [24]: 1895 ng/g

O=c1ccn([C@@H]2O[C@H](COP(=O)(O)OP(=O)(O)OP(=O)(O)O)[C@@H](O)[C@]2(F)CF)c(=O)[nH]1
Drug metabolism [25]: Metabolite_Detected

O=c1ccn([C@@H]2O[C@H](CO)[C@@H](O)[C@]2(F)CF)c(=O)[nH]1
CC50 at 72 h [1]: > 1000 µM
